Literature values, collected in US20220354960A1, “IMMUNE CHECKPOINT BLOCKING BISPECIFIC MOLECULES” (THE SCRIPPS RESEARCH INSTITUTE, priority 2019, published 2022).

System: melanoma
Conditions: for three-year survival of patients with melanoma: human, in vivo; for overall survival (>5 years): patients with melanoma

Substance | three-year survival of patients with melanoma [%] | overall survival (>5 years) [%]
Ipilimumab: anti-cytotoxic T-lymphocyte antigen-4 (CTLA-4) antibody | ~70 | ~30
Pembrolizumab: anti-programmed cell death-1 (PD-1) antibody | ~70 | ~30
